Data taken from ChEMBL document CHEMBL1201862, “PubChem BioAssay data set” (2004).
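All cell lines were grown in 96-well plates and treated with compound for 48 hours. The concentration for 50% growth inhibition is given as GI50.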 Calls of active or inactive are those of the source. No stated cut-off is given here; in the data, active = GI50 up to about 1.1 µM and inactive = higher.

Key:
Experiment in all cases: NCI tumour cell line growth inhibition, 48 h
[1] = system: BT-549
[2] = system: HCC 2998
[3] = system: HCT-15
[4] = system: HOP-62
[5] = system: HT-29
[6] = system: LOX IMVI
[7] = system: MDA-MB-231
[8] = system: MDA-N
[9] = system: Malme-3M
[10] = system: NCI-H23
[11] = system: NCI-H460
[12] = system: OVCAR-5
[13] = system: SK-MEL-2
[14] = system: SN12C
[15] = system: SR
[16] = system: TK-10
[17] = system: U-251
[18] = system: HOP-92
[19] = system: KM12
[20] = system: A498

| Structure (SMILES) | GI50 [1] | GI50 [2] | GI50 [3] [µM] | GI50 [4] | GI50 [5] | GI50 [6] | GI50 [7] | GI50 [8] | GI50 [9] | GI50 [10] | GI50 [11] | GI50 [12] | GI50 [13] | GI50 [14] | GI50 [15] | GI50 [16] | GI50 [17] | GI50 [18] | GI50 [19] | GI50 [20] |
| --- | --- | --- | --- | --- | --- | --- | --- | --- | --- | --- | --- | --- | --- | --- | --- | --- | --- | --- | --- | --- |
| CCOC(=O)c1c(O)nc2cccc3c2c1-c1cccnc1S3 | 22.4 µM (inactive) | 50.2 µM (inactive) | 35.8 | 25.5 µM (inactive) | 29.4 µM (inactive) | 25.1 µM (inactive) | 39 µM (inactive) | 39 µM (inactive) | 34 µM (inactive) | 21 µM (inactive) | 24.4 µM (inactive) | 24 µM (inactive) | 56.1 µM (inactive) | 39.9 µM (inactive) | 28.6 µM (inactive) | 44.7 µM (inactive) | 21.3 µM (inactive) | – | – | – |
| COc1cc(NS(C)(=O)=O)ccc1Nc1c2ccccc2nc2ccccc12 [AMSACRINE] | 1.04 µM (active) | 1.24 µM (inactive) | 0.716 | 0.084 µM (active) | 1.77 µM (inactive) | 0.179 µM (active) | 2.41 µM (inactive) | 3.32 µM (inactive) | 0.611 µM (active) | 0.152 µM (active) | 0.028 µM (active) | 1.58 µM (inactive) | 3.7 µM (inactive) | 0.131 µM (active) | – | 2.63 µM (inactive) | 0.166 µM (active) | 0.524 µM (active) | 1.44 µM (inactive) | – |
| CN1CCc2c(sc3ncn(Nc4ccc(Cl)cc4)c(=N)c23)C1 | > 100 µM (inactive) | – | > 100 | > 100 µM (inactive) | > 100 µM (inactive) | > 100 µM (inactive) | > 100 µM (inactive) | > 100 µM (inactive) | > 100 µM (inactive) | > 100 µM (inactive) | > 100 µM (inactive) | > 100 µM (inactive) | > 100 µM (inactive) | > 100 µM (inactive) | – | > 100 µM (inactive) | > 100 µM (inactive) | > 100 µM (inactive) | > 100 µM (inactive) | > 100 µM (inactive) |
| COc1ccc2c(c1)OC1c3ccccc3OCC21 (configuration not stated) | 59.7 µM (inactive) | 39.9 µM (inactive) | 62.7 | > 100 µM (inactive) | 25.6 µM (inactive) | 81.3 µM (inactive) | > 100 µM (inactive) | 36.6 µM (inactive) | – | 61.4 µM (inactive) | 61.9 µM (inactive) | > 100 µM (inactive) | > 100 µM (inactive) | > 100 µM (inactive) | – | > 100 µM (inactive) | > 100 µM (inactive) | 61.8 µM (inactive) | 28.4 µM (inactive) | > 100 µM (inactive) |
| CC(=O)C(I(OS(=O)(=O)c1ccc(C)cc1)c1ccccc1)=P(c1ccccc1)(c1ccccc1)c1ccccc1 | 18.9 µM (inactive) | 18 µM (inactive) | > 100 | 23.3 µM (inactive) | 18.9 µM (inactive) | – | 23.4 µM (inactive) | 15 µM (inactive) | 14.8 µM (inactive) | 18.1 µM (inactive) | 58.5 µM (inactive) | 23 µM (inactive) | 16 µM (inactive) | 15.9 µM (inactive) | – | 84.9 µM (inactive) | 29.2 µM (inactive) | 10.5 µM (inactive) | 16.2 µM (inactive) | > 100 µM (inactive) |
| Cc1cc2c(cc1C)[n+]([O-])c(N1CCN(c3ccc([N+](=O)[O-])cc3)CC1)c(C#N)[n+]2[O-] | 32.4 µM (inactive) | > 100 µM (inactive) | 85.3 | 15.2 µM (inactive) | > 100 µM (inactive) | 25.2 µM (inactive) | 20 µM (inactive) | > 100 µM (inactive) | 69.5 µM (inactive) | 25.6 µM (inactive) | 20.3 µM (inactive) | 37.6 µM (inactive) | 22 µM (inactive) | 35.3 µM (inactive) | – | 15 µM (inactive) | 17 µM (inactive) | 23.2 µM (inactive) | > 100 µM (inactive) | 35 µM (inactive) |
| O=C(/C=C/c1ccc(Cl)cc1)c1ccccc(=O)c1O | 2.3 µM (inactive) | 0.579 µM (active) | 0.341 | 2.65 µM (inactive) | 2.58 µM (inactive) | 1.29 µM (inactive) | 1.44 µM (inactive) | – | 1.33 µM (inactive) | 2.71 µM (inactive) | 0.461 µM (active) | 6.34 µM (inactive) | 1.75 µM (inactive) | 0.643 µM (active) | 0.238 µM (active) | 4.55 µM (inactive) | 2.26 µM (inactive) | 3.54 µM (inactive) | 1.53 µM (inactive) | 2.84 µM (inactive) |
| CN(Cc1cnc2nc(N)nc(N)c2n1)c1ccc(C(=O)N[C@@H](CCC(=O)O)C(=O)O)cc1 [METHOTREXATE] | 69.5 µM (inactive) | 0.119 µM (active) | 0.0343 | 0.0403 µM (active) | 0.0335 µM (active) | 0.0274 µM (active) | 38.7 µM (inactive) | – | 2.36 µM (inactive) | 0.0408 µM (active) | 0.028 µM (active) | 0.916 µM (active) | 102 µM (inactive) | 0.0321 µM (active) | 0.0373 µM (active) | 37.4 µM (inactive) | 0.0723 µM (active) | 7.21 µM (inactive) | 0.0493 µM (active) | 4.78 µM (inactive) |
| Cc1cc2nnn(C3CCCCO3)c2cc1C (configuration not stated) | > 100 µM (inactive) | > 100 µM (inactive) | > 100 | > 100 µM (inactive) | > 100 µM (inactive) | – | > 100 µM (inactive) | > 100 µM (inactive) | > 100 µM (inactive) | > 100 µM (inactive) | > 100 µM (inactive) | > 100 µM (inactive) | > 100 µM (inactive) | > 100 µM (inactive) | > 100 µM (inactive) | > 100 µM (inactive) | > 100 µM (inactive) | – | > 100 µM (inactive) | – |
| CC(=O)C1=C(C)N(c2ccc(C)cc2)C2(O)C=CC(=O)C3C(=O)N(c4ccccc4)C(=O)C132 (configuration not stated) | 17.4 µM (inactive) | 22.5 µM (inactive) | 11.2 | 25.9 µM (inactive) | 18.6 µM (inactive) | 3.08 µM (inactive) | 22.5 µM (inactive) | – | 19.6 µM (inactive) | 17.1 µM (inactive) | 29.4 µM (inactive) | 55.2 µM (inactive) | 12.5 µM (inactive) | 15.5 µM (inactive) | 2.94 µM (inactive) | 18.4 µM (inactive) | 17.7 µM (inactive) | 16.8 µM (inactive) | 21.9 µM (inactive) | 20.2 µM (inactive) |
| CCOC(=O)NC(=S)NC(C)c1ccccc1 (configuration not stated) | > 100 µM (inactive) | > 100 µM (inactive) | > 100 | > 100 µM (inactive) | > 100 µM (inactive) | – | > 100 µM (inactive) | > 100 µM (inactive) | > 100 µM (inactive) | > 100 µM (inactive) | – | > 100 µM (inactive) | > 100 µM (inactive) | – | 56.6 µM (inactive) | > 100 µM (inactive) | > 100 µM (inactive) | – | > 100 µM (inactive) | – |
| Cc1cccc(C(C)(C)C)c1NC(=O)/C(Cc1nc2ccc([N+](=O)[O-])cc2nc1O)=N\NC(=O)C[N+](C)(C)C | 38.5 µM (inactive) | > 100 µM (inactive) | > 100 | – | > 100 µM (inactive) | 51.3 µM (inactive) | > 100 µM (inactive) | > 100 µM (inactive) | > 100 µM (inactive) | > 100 µM (inactive) | > 100 µM (inactive) | > 100 µM (inactive) | > 100 µM (inactive) | > 100 µM (inactive) | – | – | > 100 µM (inactive) | 47.2 µM (inactive) | 47.1 µM (inactive) | 60.7 µM (inactive) |
| CC(C)=CCC/C(C)=C/CC/C(C)=C/CSc1ccccc1C(=O)O [SALIRASIB] | 16.7 µM (inactive) | 18 µM (inactive) | 14.7 | 16.9 µM (inactive) | 20.5 µM (inactive) | 19.5 µM (inactive) | 22.6 µM (inactive) | 22.3 µM (inactive) | – | 18.2 µM (inactive) | 17.4 µM (inactive) | 19.2 µM (inactive) | 14.4 µM (inactive) | 23.3 µM (inactive) | – | 28.4 µM (inactive) | 20.2 µM (inactive) | 25.9 µM (inactive) | 17.6 µM (inactive) | 23.7 µM (inactive) |
| CCCCCCCCCC1(N=[N+]=[N-])C(=O)c2ccccc2N(C)C1=O (configuration not stated) | 28.1 µM (inactive) | 33 µM (inactive) | 30.3 | 35.8 µM (inactive) | 30.4 µM (inactive) | 15.3 µM (inactive) | – | 30.7 µM (inactive) | 28.1 µM (inactive) | 25.6 µM (inactive) | 37.2 µM (inactive) | 31.9 µM (inactive) | 25.4 µM (inactive) | 26.1 µM (inactive) | 35.4 µM (inactive) | 32.3 µM (inactive) | 2.22 µM (inactive) | 20.2 µM (inactive) | 48 µM (inactive) | 20.8 µM (inactive) |
| O=C(Cn1c2ccc(Br)cc2c2nc3ccccc3nc21)Nc1ccccc1 | > 100 µM (inactive) | 34.8 µM (inactive) | 25.1 | 27.9 µM (inactive) | 24.8 µM (inactive) | 15.8 µM (inactive) | 13.3 µM (inactive) | 37.7 µM (inactive) | 28.6 µM (inactive) | 28 µM (inactive) | 31.8 µM (inactive) | 47 µM (inactive) | 55 µM (inactive) | 42.6 µM (inactive) | – | 27.7 µM (inactive) | 24 µM (inactive) | 14.1 µM (inactive) | 56.8 µM (inactive) | 34 µM (inactive) |
| CC(C(N)=O)N(C)C(=O)c1cc2ccccc2[n+](Cc2ccccc2)c1 (configuration not stated) | > 100 µM (inactive) | > 100 µM (inactive) | > 100 | – | > 100 µM (inactive) | – | > 100 µM (inactive) | > 100 µM (inactive) | > 100 µM (inactive) | > 100 µM (inactive) | > 100 µM (inactive) | > 100 µM (inactive) | > 100 µM (inactive) | > 100 µM (inactive) | – | > 100 µM (inactive) | > 100 µM (inactive) | > 100 µM (inactive) | > 100 µM (inactive) | > 100 µM (inactive) |
